Measurements from US9212182B2, “Bicyclic sulfonamide compounds as sodium channel inhibitors” (AMGEN INC., priority 2013, dated 2015).

target: Nav 1.7 (Homo sapiens (Human), UniProt Q15858); test: in-vitro Nav 1.7 PX (IC50); type: cell-based; conditions: not given
Sequence (Q15858 whole entry): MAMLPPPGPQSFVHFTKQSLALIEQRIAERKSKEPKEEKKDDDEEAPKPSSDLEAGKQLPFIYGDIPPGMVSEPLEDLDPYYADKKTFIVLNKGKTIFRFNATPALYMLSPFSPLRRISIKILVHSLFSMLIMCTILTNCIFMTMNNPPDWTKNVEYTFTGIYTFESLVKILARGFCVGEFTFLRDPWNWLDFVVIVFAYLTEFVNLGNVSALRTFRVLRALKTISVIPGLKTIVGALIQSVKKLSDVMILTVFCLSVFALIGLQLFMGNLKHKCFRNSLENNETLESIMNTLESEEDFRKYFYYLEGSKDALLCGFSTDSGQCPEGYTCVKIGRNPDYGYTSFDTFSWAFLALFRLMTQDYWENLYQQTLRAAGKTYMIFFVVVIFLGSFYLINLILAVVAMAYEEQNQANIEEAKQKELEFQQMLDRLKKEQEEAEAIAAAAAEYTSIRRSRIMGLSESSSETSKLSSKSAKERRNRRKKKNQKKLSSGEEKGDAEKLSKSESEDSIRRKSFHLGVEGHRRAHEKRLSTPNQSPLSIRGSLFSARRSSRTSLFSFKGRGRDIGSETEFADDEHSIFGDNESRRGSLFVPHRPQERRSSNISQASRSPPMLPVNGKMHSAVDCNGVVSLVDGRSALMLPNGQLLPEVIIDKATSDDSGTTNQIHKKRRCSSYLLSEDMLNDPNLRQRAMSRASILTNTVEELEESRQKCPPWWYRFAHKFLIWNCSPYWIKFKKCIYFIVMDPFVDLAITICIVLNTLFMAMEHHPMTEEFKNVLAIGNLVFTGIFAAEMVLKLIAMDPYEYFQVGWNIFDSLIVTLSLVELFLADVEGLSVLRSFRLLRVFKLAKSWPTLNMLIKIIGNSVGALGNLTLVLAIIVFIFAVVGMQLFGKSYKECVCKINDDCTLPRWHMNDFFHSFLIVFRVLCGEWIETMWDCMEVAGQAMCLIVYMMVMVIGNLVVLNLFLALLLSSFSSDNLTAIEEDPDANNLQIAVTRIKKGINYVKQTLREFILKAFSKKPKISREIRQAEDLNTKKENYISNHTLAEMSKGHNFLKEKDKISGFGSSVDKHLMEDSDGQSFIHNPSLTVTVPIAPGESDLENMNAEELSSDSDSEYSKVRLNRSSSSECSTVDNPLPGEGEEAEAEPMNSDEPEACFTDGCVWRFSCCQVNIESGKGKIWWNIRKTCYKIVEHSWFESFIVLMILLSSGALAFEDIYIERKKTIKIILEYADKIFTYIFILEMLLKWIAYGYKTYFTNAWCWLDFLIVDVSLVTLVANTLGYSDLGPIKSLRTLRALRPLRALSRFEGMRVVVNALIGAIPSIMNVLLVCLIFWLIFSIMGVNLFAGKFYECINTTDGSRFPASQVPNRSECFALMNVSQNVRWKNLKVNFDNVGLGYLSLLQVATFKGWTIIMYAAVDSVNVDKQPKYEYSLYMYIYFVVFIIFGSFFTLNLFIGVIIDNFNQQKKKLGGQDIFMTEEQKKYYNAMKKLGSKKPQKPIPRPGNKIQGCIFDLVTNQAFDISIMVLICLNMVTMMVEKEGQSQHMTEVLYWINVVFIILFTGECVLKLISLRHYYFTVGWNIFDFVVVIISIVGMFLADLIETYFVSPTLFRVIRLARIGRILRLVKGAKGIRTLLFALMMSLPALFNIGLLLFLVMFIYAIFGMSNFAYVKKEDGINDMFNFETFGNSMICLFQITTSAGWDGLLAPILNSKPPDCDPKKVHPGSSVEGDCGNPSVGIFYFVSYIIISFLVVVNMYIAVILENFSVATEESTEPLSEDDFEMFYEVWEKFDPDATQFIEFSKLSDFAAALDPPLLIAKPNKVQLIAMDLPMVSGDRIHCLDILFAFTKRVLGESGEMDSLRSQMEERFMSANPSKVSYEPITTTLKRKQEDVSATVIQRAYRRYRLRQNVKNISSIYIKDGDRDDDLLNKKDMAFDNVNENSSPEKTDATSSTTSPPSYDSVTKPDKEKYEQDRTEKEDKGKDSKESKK

IC50 [nM]	Structure (SMILES)
25	COc1cc(-c2cccc(F)c2)c(C)cc1-n1c(=O)ccc2cc(S(=O)(=O)Nc3ccon3)ccc21 (atropisomer, axis not shown; (P)) [Example 427, (P)-1-(3′-fluoro-5-methoxy-2-methyl-4-biphenylyl)-N-3-isoxazolyl-2-oxo-1,2-dihydro-6-quinolinesulfonamide]
178	COc1cc(Br)c(Cl)cc1-n1c(=O)ccc2cc(S(=O)(=O)Nc3ccon3)ccc21 (atropisomer, axis not shown; (P)) [Example 473, (P)-1-(4-bromo-5-chloro-2-methoxyphenyl)-N-(isoxazol-3-yl)-2-oxo-1,2-dihydroquinoline-6-sulfonamide]
2770	COc1ccc(-c2ccnc(F)c2)cc1-n1c(=O)ccc2cc(S(=O)(=O)Nc3ccon3)ccc21 [Example 496, 1-(5-(2-fluoro-4-pyridinyl)-2-methoxyphenyl)-N-3-isoxazolyl-2-oxo-1,2-dihydro-6-quinolinesulfonamide]
> 1000	COc1cc(-c2cc(C)cc(Cl)c2)ccc1-n1c(=O)ccc2cc(S(=O)(=O)Nc3ccon3)ccc21 (atropisomer, axis not shown; (M)) [Example 586, (M)-1-(3′-chloro-3-methoxy-5′-methyl-4-biphenylyl)-N-3-isoxazolyl-2-oxo-1,2-dihydro-6-quinolinesulfonamide]
16	COc1cc(-c2ccc(F)c(Cl)c2)ccc1-n1c(=O)ccc2cc(S(=O)(=O)Nc3ccon3)ccc21 (atropisomer, axis not shown; (P)) [Example 578, (P)-1-(3′-chloro-4′-fluoro-3-methoxy-4-biphenylyl)-N-3-isoxazolyl-2-oxo-1,2-dihydro-6-quinolinesulfonamide]

Further lines, the compound ahead of its results:

Structure (SMILES)	IC50 [nM]
COc1nc(O[C@H]2C[C@H]3CC[C@@H]2C3)c(Cl)cc1-n1c(=O)ccc2cc(S(=O)(=O)Nc3ccon3)ccc21 [Example 1223, 1-(6-((1R,2S,4S)-bicyclo[2.2.1]hept-2-yloxy)-5-chloro-2-methoxy-3-pyridinyl)-N-3-isoxazolyl-2-oxo-1,2-dihydro-6-quinolinesulfonamide]	416
COc1cc(-c2cccc(Cl)c2)c(Cl)cc1-n1c(=O)ccc2cc(S(=O)(=O)Nc3ccon3)ccc21 (atropisomer, axis not shown; (P)) [Example 459, (P)-1-(2,3′-dichloro-5-methoxy-[1,1′-biphenyl]-4-yl)-N-(isoxazol-3-yl)-2-oxo-1,2-dihydroquinoline-6-sulfonamide]	12
COc1nc(OCc2ccc(F)c(C(F)(F)F)c2)c(Cl)cc1-n1c(=O)ccc2cc(S(=O)(=O)Nc3ccon3)ccc21 [Example 1215, 1-(5-chloro-6-((4-fluoro-3-(trifluoromethyl)benzyl)oxy)-2-methoxy-3-pyridinyl)-N-3-isoxazolyl-2-oxo-1,2-dihydro-6-quinolinesulfonamide]	24

same assay, conditions: in-vitro Nav 1.7 PX data

IC50 [nM]	Structure (SMILES)
14	COc1cc(-c2cc(C)cc(C)c2)c(F)cc1-n1c(=O)ccc2cc(S(=O)(=O)Nc3ccon3)ccc21 [Example 706, 1-(2-fluoro-5-methoxy-3′,5′-dimethyl-4-biphenylyl)-N-3-isoxazolyl-2-oxo-1,2-dihydro-6-quinolinesulfonamide]
54	COc1cc(-c2cc(OC)c(-n3c(=O)ccc4cc(S(=O)(=O)Nc5ccon5)ccc43)cc2F)ccc1C#N [Example 720, 1-(4′-cyano-2-fluoro-3′,5-dimethoxy-4-biphenylyl)-N-3-isoxazolyl-2-oxo-1,2-dihydro-6-quinolinesulfonamide]
72	COc1ccc(-c2ccccc2Cl)cc1-n1c(=O)ccc2cc(S(=O)(=O)Nc3ccon3)ccc21 [Example 842, 1-(2′-chloro-4-methoxy-3-biphenylyl)-N-3-isoxazolyl-2-oxo-1,2-dihydro-6-quinolinesulfonamide]
9	CCc1cccc(-c2cc(OC)c(-n3c(=O)ccc4cc(S(=O)(=O)Nc5ccon5)ccc43)cc2F)c1 [Example 791, 1-(3′-ethyl-2-fluoro-5-methoxy-4-biphenylyl)-N-3-isoxazolyl-2-oxo-1,2-dihydro-6-quinolinesulfonamide]
25	COc1ccc(-c2cc(F)cc(Cl)c2)cc1-n1c(=O)ccc2cc(S(=O)(=O)Nc3ccon3)ccc21 [Example 858, 1-(3′-chloro-5′-fluoro-4-methoxy-3-biphenylyl)-N-3-isoxazolyl-2-oxo-1,2-dihydro-6-quinolinesulfonamide]
598	COc1ccc(-c2cc(OC)c(-n3c(=O)ccc4cc(S(=O)(=O)Nc5ccon5)ccc43)cc2F)cn1 [Example 729, 1-(5-fluoro-2-methoxy-4-(6-methoxy-3-pyridinyl)phenyl)-N-3-isoxazolyl-2-oxo-1,2-dihydro-6-quinolinesulfonamide]
33	COc1ccc(-c2ccc(Cl)c(F)c2)cc1-n1c(=O)ccc2cc(S(=O)(=O)Nc3ccon3)ccc21 [Example 874, 1-(4′-chloro-3′-fluoro-4-methoxy-3-biphenylyl)-N-3-isoxazolyl-2-oxo-1,2-dihydro-6-quinolinesulfonamide]
69	COc1cc(F)cc(-c2ccc(OC)c(-n3c(=O)ccc4cc(S(=O)(=O)Nc5ccon5)ccc43)c2)c1 [Example 838, 1-(3′-fluoro-4,5′-dimethoxy-3-biphenylyl)-N-3-isoxazolyl-2-oxo-1,2-dihydro-6-quinolinesulfonamide]
15	CCc1cccc(-c2ccc(-n3c(=O)ccc4cc(S(=O)(=O)Nc5ccon5)ccc43)c(OC)c2)c1 [Example 810, 1-(3′-ethyl-3-methoxy-4-biphenylyl)-N-3-isoxazolyl-2-oxo-1,2-dihydro-6-quinolinesulfonamide]
44	COc1cc(-c2cccc(C)c2)ccc1-n1c(=O)ccc2cc(S(=O)(=O)Nc3ncco3)ccc21 [Example 1113, 1-(3-methoxy-3′-methyl-4-biphenylyl)-N-1,3-oxazol-2-yl-2-oxo-1,2-dihydro-6-quinolinesulfonamide]

More lines, now with the values behind:

Structure (SMILES)	IC50 [nM]
COc1ccccc1-c1cc(OC)c(-n2c(=O)ccc3cc(S(=O)(=O)Nc4ccon4)ccc32)cc1F [Example 956, 1-(2-fluoro-2′,5-dimethoxy-4-biphenylyl)-N-3-isoxazolyl-2-oxo-1,2-dihydro-6-quinolinesulfonamide]	99
COc1cc(-c2cccc(C)c2)c(F)cc1-n1c(=O)ccc2cc(S(=O)(=O)Nc3ncon3)ccc21 [Example 1114, 1-(2-fluoro-5-methoxy-3′-methyl-4-biphenylyl)-N-1,2,4-oxadiazol-3-yl-2-oxo-1,2-dihydro-6-quinolinesulfonamide]	35
COc1cc(-c2ccc(Cl)c(C)c2)c(F)cc1-n1c(=O)ccc2cc(S(=O)(=O)Nc3ncco3)ccc21 (atropisomer, axis not shown; (P)) [Example 694, (P)-1-(4′-chloro-2-fluoro-5-methoxy-3′-methyl-4-biphenylyl)-N-1,3-oxazol-2-yl-2-oxo-1,2-dihydro-6-quinolinesulfonamide]	27
COc1cc(CC(C)(C)C)c(F)cc1-n1c(=O)ccc2cc(S(=O)(=O)Nc3ccon3)ccc21 [Example 1076, 1-(4-(2,2-dimethylpropyl)-5-fluoro-2-methoxyphenyl)-N-3-isoxazolyl-2-oxo-1,2-dihydro-6-quinolinesulfonamide]	64
COc1cc(CC2CCCCC2)c(F)cc1-n1c(=O)ccc2cc(S(=O)(=O)Nc3cnccn3)ccc21 [Example 1116, 1-(4-(cyclohexylmethyl)-5-fluoro-2-methoxyphenyl)-2-oxo-N-2-pyrazinyl-1,2-dihydro-6-quinolinesulfonamide]	30
COc1cc(-c2ccc(Cl)c(C#N)c2)c(F)cc1-n1c(=O)ccc2cc(S(=O)(=O)Nc3ncc(F)cn3)ccc21 [Example 893, 1-(4′-chloro-3′-cyano-2-fluoro-5-methoxy-4-biphenylyl)-N-(5-fluoro-2-pyrimidinyl)-2-oxo-1,2-dihydro-6-quinolinesulfonamide]	13
COc1cc(-c2cc(F)cc(Cl)c2)c(F)cc1-n1c(=O)ccc2cc(S(=O)(=O)Nc3cnsn3)ccc21 [Example 922, 1-(3′-chloro-2,5′-difluoro-5-methoxy-4-biphenylyl)-2-oxo-N-1,2,5-thiadiazol-3-yl-1,2-dihydro-6-quinolinesulfonamide]	4
COc1cc(-c2ccc(OC(F)F)cc2)c(F)cc1-n1c(=O)ccc2cc(S(=O)(=O)Nc3ccon3)ccc21 [Example 763, 1-(4′-(difluoromethoxy)-2-fluoro-5-methoxy-4-biphenylyl)-N-3-isoxazolyl-2-oxo-1,2-dihydro-6-quinolinesulfonamide]	30

same assay, conditions: in-vitro Nav 1.7 PX data (PatchXpress)

IC50 [nM]	Structure (SMILES)
61	COc1ccc(-c2ccc(-n3c(=O)ccc4cc(S(=O)(=O)Nc5ccon5)ccc43)c(OC)c2)c(Cl)c1 [Example 1061, 1-(2′-chloro-3,4′-dimethoxy-4-biphenylyl)-N-3-isoxazolyl-2-oxo-1,2-dihydro-6-quinolinesulfonamide]
5610	O=c1ccc2cc(S(=O)(=O)Nc3ccon3)ccc2n1-c1cc(F)c(Br)cc1OC1CCNC1 (stereo not shown) [Example 625, 1-(4-bromo-5-fluoro-2-(PYRROLIDIN-3-YLOXY)phenyl)-N-(isoxazol-3-yl)-2-oxo-1,2-dihydroquinoline-6-sulfonamide]

same assay, conditions: in-vitro PatchXpress (PX)

IC50 [nM]	Structure (SMILES)
1230	COc1cc(Cl)cc(-c2cc(OC)c(-n3c(=O)ccc4cc(S(=O)(=O)Nc5ccon5)ccc43)cc2F)c1 (atropisomer, axis not shown; (M)) [Example 502, (M)-1-(3′-chloro-2-fluoro-5,5′-dimethoxy-4-biphenylyl)-N-3-isoxazolyl-2-oxo-1,2-dihydro-6-quinolinesulfonamide]
3070	COc1cc(-c2cc(F)cc(Cl)c2)ccc1-n1c(=O)ccc2cc(S(=O)(=O)Nc3cccnn3)ccc21 (atropisomer, axis not shown; (M)) [Example 481, (M)-1-(3′-chloro-5′-fluoro-3-methoxy-4-biphenylyl)-2-oxo-N-3-pyridazinyl-1,2-dihydro-6-quinolinesulfonamide]
168	COc1nc(-c2cccc(F)c2)c(Cl)cc1-n1c(=O)ccc2cc(S(=O)(=O)Nc3ccon3)ccc21 [Example 341, 1-(5-chloro-6-(3-fluorophenyl)-2-methoxypyridin-3-yl)-N-(isoxazol-3-yl)-2-oxo-1,2-dihydroquinoline-6-sulfonamide]
